Results: patent US11274129B2, “Methods for protein tyrosine phosphorylation profiling with variant SH2 domains” (priority 2016, dated 2022)

Columns and labels:
[1] = system: mixture of 54 different pTyr-including peptides derived from 54 TK activation loops; assay: Capture of pTyr-including peptides from a mixture of TK activation loop peptides, scheduled PRM; assay type: binding
Protocol: Equal molar amounts (10 nmole) of the wild-type (wt) human Src SH2 domain and the DM and TrM human Src SH2 Superbinders (SEQ ID NO: 14 and 5, respectively) expressed with His6 and GST tags were used to capture pTyr-including peptides from a mixture of 54 different pTyr-including peptides (10 pmole each) derived from 54 TK activation loops. The isolated peptides were identified by PRM and quantified based on the corresponding MS peak area. 1.8% of the eluted peptides were injected into a Q-Exactive (Thermo Fisher) preceded with a nano-LC system.
Shown are the amounts of pTyr-including peptides captured, based on the corresponding peak area of PRM signal, by each of the parent human Src SH2 domain and the DM and TrM human Src SH2 Superbinders.

[2] = molecular target: VEGFR1-pTyr^1213 peptide DVRpYVNAAKF; conditions: peptide VEGFR1-pTyr^1213 DVRpYVNAAKF; read-out: equilibrium dissociation constant (Kd); cited from earlier work
[3] = molecular target: EGFR-pTyr^978 peptide PQRpYLVIQGD; conditions: peptide EGFR-pTyr^978 PQRpYLVIQGD; read-out: equilibrium dissociation constant (Kd); cited from earlier work
[4] = molecular target: EGFR-pTyr^1110 peptide NPVpYHNQPLN; conditions: peptide EGFR-pTyr^1110 NPVpYHNQPLN; read-out: equilibrium dissociation constant (Kd); cited from earlier work
[5] = molecular target: MidT-pTyr^324 peptide EPQpYEEIPIYL; conditions: peptide MidT-pTyr^324 EPQpYEEIPIYL; read-out: equilibrium dissociation constant (Kd); cited from earlier work
[6] = molecular target: RSKL-pTyr^423 peptide YQHpYDLDLKD; conditions: peptide RSKL-pTyr^423 YQHpYDLDLKD; read-out: equilibrium dissociation constant (Kd); cited from earlier work
[7] = molecular target: ShcA-pTyr^239 peptide DHQpYYNDFPG; conditions: peptide ShcA-pTyr^239 DHQpYYNDFPG; read-out: equilibrium dissociation constant (Kd); cited from earlier work
[8] = molecular target: ShcA-pTyr^317 peptide DPSpYVNVQNL; conditions: peptide ShcA-pTyr^317 DPSpYVNVQNL; read-out: equilibrium dissociation constant (Kd); cited from earlier work
[9] = molecular target: Designed peptide GGpYGG; conditions: read-out: equilibrium dissociation constant (Kd); cited from earlier work

In the case of “Wild type: wild-type (parent) human Src SH2 domain; SEQ ID NO: 4, His6/GST-tagged form SEQ ID NO: 10 [reference compound]”, the “number of the 54 pTyr-including peptides captured / detected by PRM” value ([1]; 10 nmole SH2 domain, 10 pmole each peptide) is reported as 22, the “PRM signal peak area” value ([1]; BLK (pTyr389) IIDSEpYTAQEGAK, fragment ion b2) is reported as 0 and the “PRM signal peak area” value ([1]; BMX (pTyr566) YVLDDQpYVSSVGTK, fragment ion b2) is reported as 0. For the same substance, the “PRM signal peak area” value ([1]; BTK (pTyr551) YVLDDEpYTSSVGSK, fragment ion b2) was 4,214, the “PRM signal peak area” value ([1]; DDR1 (pTyr796/797) NLYAGDpYpYR, fragment ion b2) was 47,729 and the “PRM signal peak area” value ([1]; DDR2 (pTyr740/741) NLYSGDpYpYR, fragment ion y6) was 15,251. The “PRM signal peak area” value ([1]; EPHA1 (pTyr781) LLDDFDGTpYETQGGK, fragment ion y9) was 0, the “PRM signal peak area” value ([1]; EPHA2 (pTyr772) VLEDDPEATpYTTSGGK, fragment ion y11) was 0 and the “PRM signal peak area” value ([1]; EPHA3 (pTyr779) VLEDDPEAApYTTR, fragment ion y8) was 0. For the same substance, the “PRM signal peak area” value ([1]; EPHA6 (pTyr830) VLEDDPEAApYTTTGGK, fragment ion b2) was 2,742, the “PRM signal peak area” value ([1]; EPHA8 (pTyr793) VLEDDPDAApYTTTGGK, fragment ion y11) was 0 and the “PRM signal peak area” value ([1]; EPHB1 (pTyr778) YLQDDTSDPTpYTSSLGGK, fragment ion y10) was 0. For the same substance, the “PRM signal peak area” value ([1]; EPHB2 (pTyr780) FLEDDTSDPTpYTSALGGK, fragment ion Y3) was 10,833, the “PRM signal peak area” value ([1]; EPHB3 (pTyr792) FLEDDPSDPTpYTSSLGGK, fragment ion y10) was 0 and the “PRM signal peak area” value ([1]; EPHB4 (pTyr774) FLEENSSDPTpYTSSLGGK, fragment ion y10) was 0. For the same substance, the “PRM signal peak area” value ([1]; ERBB2 (pTyr877) LLDIDETEpYHADGGK, fragment ion b3) was 0, the “PRM signal peak area” value ([1]; ERBB3 (pTyr866) QLLpYSEAK, fragment ion y2) was 41,881 and the “PRM signal peak area” value ([1]; FER (pTyr714) QEDGGVpYSSSGLK, fragment ion y7) was 0. For the same substance, the “PRM signal peak area” value ([1]; FES (pTyr713) EEADGVpYAASGGLR, fragment ion y8) was 0, the “PRM signal peak area” value ([1]; FGFR1 (pTyr653/654) DIHHIDpYpYK, fragment ion b6) was 28,495 and the “PRM signal peak area” value ([1]; FGFR2 (pTyr656/657) DINNIDpYpYK, fragment ion y4) was 51,625. The “PRM signal peak area” value ([1]; FGFR3 (pTyr647/648) DVHNLDpYpYK, fragment ion b3) was 103,678, the “PRM signal peak area” value ([1]; FGFR4 (pTyr642/643) GVHHIDpYpYK, fragment ion b3) was 29,764 and the “PRM signal peak area” value ([1]; FRK (pTyr387) VDNEDIpYESR, fragment ion y6) was 0. The “PRM signal peak area” value ([1]; GSK3 (pTyr279/216) GEPNVSpYICSR, fragment ion y6) was 0, the “PRM signal peak area” value ([1]; HCK (pTyr411) VIEDNEpYTAR, fragment ion b2) was 0 and the “PRM signal peak area” value ([1]; INSRR (pTyr1145/1146) DVYETDpYpYR, fragment ion y5) was 0. For the same substance, the “PRM signal peak area” value ([1]; ITK (pTyr512) FVLDDQpYTSSTGTK, fragment ion y11) was 0, the “PRM signal peak area” value ([1]; JAK1 (pTyr1034/1035) EpYpYTVK, fragment ion y2) was 58,254 and the “PRM signal peak area” value ([1]; JAK2 (pTyr221) IQDpYHILTR, fragment ion Y3) was 0. For the same substance, the “PRM signal peak area” value ([1]; JAK3 (pTyr980/981) DpYpYVVR, fragment ion y2) was 23,291, the “PRM signal peak area” value ([1]; KIT (pTyr823) NDSNpYVVK, fragment ion b2) was 0 and the “PRM signal peak area” value ([1]; LMTK2 (pTyr295) EDpYIETDDK, fragment ion b2) was 0. For the same substance, the “PRM signal peak area” value ([1]; LMTK3 (pTyr296/297) EDpYpYLTPER, fragment ion y3) was 29,887, the “PRM signal peak area” value ([1]; MERTK (pTyr753/754) IYSGDpYpYR, fragment ion b2) was 0 and the “PRM signal peak area” value ([1]; MET (pTyr1234/1235) EpYpYSVHNK, fragment ion y2) was 26,824. For the same substance, the “PRM signal peak area” value ([1]; MUSK (pTyr755/756) NIYSADpYpYK, fragment ion y2) was 47,647, the “PRM signal peak area” value ([1]; NTRK1 (pTyr680/681) DIYSTDpYpYR, fragment ion b2) was 21,736 and the “PRM signal peak area” value ([1]; NTRK2 (pTyr706/707) DVYSTDpYpYR, fragment ion y4) was 39,632. The “PRM signal peak area” value ([1]; PGFRB (pTyr857) DSNpYISK, fragment ion y2) was 0, the “PRM signal peak area” value ([1]; PTK7 (pTyr960/961) DVYNSEpYpYHFR, fragment ion b2) was 0 and the “PRM signal peak area” value ([1]; RET (pTyr905) DVYEEDSpYVK, fragment ion b2) was 0. The “PRM signal peak area” value ([1]; RON (pTyr1238/1239) EpYpYSVQQHR, fragment ion y4) was 5,434, the “PRM signal peak area” value ([1]; ROR1 (pTyr645/646) EIYSADpYpYR, fragment ion y6) was 32,356 and the “PRM signal peak area” value ([1]; ROR2 (pTyr645/646) EVYAADpYpYK, fragment ion y5) was 85,894. The “PRM signal peak area” value ([1]; SRC (pTyr419) LIEDNEpYTAR, fragment ion b2) was 0, the “PRM signal peak area” value ([1]; SRMS (pTyr380) DDIpYSPSSSSK, fragment ion y8) was 0 and the “PRM signal peak area” value ([1]; TEC (pTyr519) YVLDDQpYTSSSGAK, fragment ion b2) was 0. The “PRM signal peak area” value ([1]; TIE1 (pTyr1007) GEEVpYVK, fragment ion b2) was 0, the “PRM signal peak area” value ([1]; TIE2 (pTyr992) GQEVpYVK, fragment ion b2) was 0 and the “PRM signal peak area” value ([1]; TXK (pTyr420) YVLDDEpYVSSFGAK, fragment ion b2) was 1,519. For the same substance, the “PRM signal peak area” value ([1]; TYK2 (pTyr1054/1055) AVPEGHEpYpYR, fragment ion y6) was 11,551, the “PRM signal peak area” value ([1]; VGFR1 (pTyr1053) NPDpYVR, fragment ion y3) was 0 and the “PRM signal peak area” value ([1]; VGFR2 (pTyr1059) DPDpYVR, fragment ion Y3) was 0. The Kd [2] was 6.5 µM, the Kd [3] was 3.7 µM and the Kd [4] was 6.9 µM. For the same substance, the Kd [5] was 0.13 µM, the Kd [6] was 3.9 µM and the Kd [7] was 0.7 µM. The Kd [8] was 2.2 µM and the Kd [9] was > 30 µM.
